Experimental data reported in ChEMBL document CHEMBL1143167, “Monoaryl-substituted salicylaldoximes as ligands for estrogen receptor beta” (J Med Chem, 2008).

Tests used:
[1] = target: Estrogen receptor beta (Homo sapiens) (UniProt Q92731); test: Displacement of [3H]estradiol from purified full length human ERbeta receptor relative to estradiol
[2] = target: T1, Estrogen receptor (Homo sapiens) (UniProt P03372); test: Displacement of [3H]estradiol from purified full length human ERalpha receptor relative to estradiol
T1 sequence (whole entry): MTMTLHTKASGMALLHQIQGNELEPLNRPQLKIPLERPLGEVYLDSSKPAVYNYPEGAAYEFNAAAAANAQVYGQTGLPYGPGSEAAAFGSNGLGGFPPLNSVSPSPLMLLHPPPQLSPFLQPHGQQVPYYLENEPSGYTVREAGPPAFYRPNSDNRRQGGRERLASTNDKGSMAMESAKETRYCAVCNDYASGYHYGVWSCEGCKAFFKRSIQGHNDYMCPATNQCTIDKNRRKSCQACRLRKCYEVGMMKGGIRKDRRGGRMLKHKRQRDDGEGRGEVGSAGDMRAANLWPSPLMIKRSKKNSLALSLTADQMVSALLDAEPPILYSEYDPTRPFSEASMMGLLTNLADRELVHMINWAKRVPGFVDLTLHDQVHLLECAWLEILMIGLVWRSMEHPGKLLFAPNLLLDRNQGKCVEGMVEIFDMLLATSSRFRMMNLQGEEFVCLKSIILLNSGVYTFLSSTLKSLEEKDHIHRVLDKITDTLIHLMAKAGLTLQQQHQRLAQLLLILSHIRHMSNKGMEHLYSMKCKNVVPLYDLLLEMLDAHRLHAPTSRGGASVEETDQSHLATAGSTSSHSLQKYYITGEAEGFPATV

Homo sapiens = organism: Homo sapiens; test: Selectivity ratio of human ERbeta receptor over human ERalpha receptor

Sequence of Estrogen receptor beta (Homo sapiens) (Q92731 whole entry): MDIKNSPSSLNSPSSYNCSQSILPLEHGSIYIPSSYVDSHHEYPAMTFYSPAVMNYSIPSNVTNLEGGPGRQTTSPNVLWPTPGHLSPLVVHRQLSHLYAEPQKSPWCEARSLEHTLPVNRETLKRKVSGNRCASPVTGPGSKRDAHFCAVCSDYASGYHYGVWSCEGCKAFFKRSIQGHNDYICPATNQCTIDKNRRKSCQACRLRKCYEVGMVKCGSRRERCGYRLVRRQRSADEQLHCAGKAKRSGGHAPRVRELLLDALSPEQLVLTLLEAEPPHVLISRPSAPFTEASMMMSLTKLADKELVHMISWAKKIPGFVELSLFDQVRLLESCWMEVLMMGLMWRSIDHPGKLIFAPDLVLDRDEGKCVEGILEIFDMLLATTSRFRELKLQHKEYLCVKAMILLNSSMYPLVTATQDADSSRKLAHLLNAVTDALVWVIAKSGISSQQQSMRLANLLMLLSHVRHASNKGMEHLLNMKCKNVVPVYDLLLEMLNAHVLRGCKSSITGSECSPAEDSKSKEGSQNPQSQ

RBA [1] | RBA [2] | Ratio (Homo sapiens) | Structure (SMILES)
< 0.004% | < 0.004% | – | O/N=C/c1ccc(-c2ccccc2)cc1O
0.553% | 0.007% | 79 | O/N=C/c1ccc(-c2ccc(O)cc2)cc1O
0.007% | 0.005% | – | COc1ccc(-c2ccc(/C=N/O)c(O)c2C)cc1
0.078% | 0.004% | 20 | N#Cc1c(-c2ccc(O)cc2)ccc(/C=N/O)c1O
< 0.004% | 0.01% | – | COc1ccc(-c2ccc(/C=N/O)c(O)c2)cc1
4.1% | 0.249% | 16 | Cc1c(-c2ccc(O)cc2)ccc(/C=N/O)c1O
